The values below come from ChEMBL document CHEMBL2401621, “Design, synthesis and antibacterial evaluation of novel AHL analogues” (2013).

Common to all, as to format: functional
One assay has as its system Bacillus subtilis. Description: Antibacterial activity against Bacillus subtilis after 18 hrs by broth microdilution method. On the technique in general: In broth dilution the organism is exposed to a series of concentrations in liquid medium.
Another assay has as its system Pseudomonas aeruginosa. In words: Antibacterial activity against Pseudomonas aeruginosa after 18 hrs by broth microdilution method.
The subject of the next assay is Escherichia coli. In words: Antibacterial activity against Escherichia coli after 18 hrs by broth microdilution method.
The test system of a further assay is Staphylococcus aureus. Description: Antibacterial activity against Staphylococcus aureus after 18 hrs by broth microdilution method.

In brackets after ≈: the same amount, converted by molar mass.

Turning to `O=C(CSC(=S)N[C@H]1CCOC1=O)Nc1ccccc1F`, the MIC50 with Bacillus subtilis was > 128 µg/mL; against Pseudomonas aeruginosa it was > 128 µg/mL; against Escherichia coli it was 40.5 µg/mL (≈ 123 µM); in the assay with Staphylococcus aureus, 6.53 µg/mL (≈ 19.9 µM).
Consider `O=C(CSC(=S)N[C@H]1CCOC1=O)Nc1ccc(Cl)cc1`, for which the MIC50 against Bacillus subtilis was > 128 µg/mL; in the assay with Pseudomonas aeruginosa, > 128 µg/mL; against Escherichia coli, > 128 µg/mL; in the assay with Staphylococcus aureus, 3.5 µg/mL (≈ 10.1 µM).
As for `O=C(CSC(=S)N[C@H]1CCOC1=O)Nc1ccc(Br)cc1`, the MIC50 against Bacillus subtilis stood at 30.2 µg/mL (≈ 77.7 µM); with Pseudomonas aeruginosa it was 54.5 µg/mL (≈ 140 µM); in the assay with Escherichia coli, 24.9 µg/mL (≈ 63.9 µM); in the assay on Staphylococcus aureus it was 3.69 µg/mL (≈ 9.48 µM).
In the same order, the values of `Cc1cccc(NC(=O)CSC(=S)N[C@H]2CCOC2=O)c1C` are > 128 µg/mL, > 128 µg/mL, > 128 µg/mL and > 128 µg/mL.
With `Cc1cccc(NC(=O)CSC(=S)N[C@H]2CCOC2=O)c1`, the MIC50 in the assay on Bacillus subtilis was > 128 µg/mL; with Pseudomonas aeruginosa, 37.2 µg/mL (≈ 115 µM); against Escherichia coli it was > 128 µg/mL; in the assay on Staphylococcus aureus it was > 128 µg/mL.
With `O=C(CSC(=S)N[C@H]1CCOC1=O)Nc1cccc(Cl)c1`, the MIC50 against Bacillus subtilis, against Pseudomonas aeruginosa, in the assay on Escherichia coli and against Staphylococcus aureus was > 128 µg/mL in each case.
Consider `O=C(CSC(=S)N[C@H]1CCOC1=O)Nc1ccccc1`, for which the MIC50 against Bacillus subtilis was 47.9 µg/mL (≈ 154 µM); in the assay with Pseudomonas aeruginosa, 48.5 µg/mL (≈ 156 µM); with Escherichia coli, > 128 µg/mL; against Staphylococcus aureus, 7.72 µg/mL (≈ 24.9 µM).
On to `O=C(CSC(=S)N[C@H]1CCOC1=O)Nc1ccccc1Cl`, for which the MIC50 in the assay on Bacillus subtilis is 9.63 µg/mL (≈ 27.9 µM); in the assay on Pseudomonas aeruginosa it was > 128 µg/mL; in the assay with Escherichia coli, > 128 µg/mL; against Staphylococcus aureus it was 5.62 µg/mL (≈ 16.3 µM).
Consider `Cc1ccc(NC(=O)CSC(=S)N[C@H]2CCOC2=O)cc1`, for which the MIC50 with Bacillus subtilis was > 128 µg/mL; in the assay on Pseudomonas aeruginosa, 63.8 µg/mL (≈ 197 µM); against Escherichia coli it was 30.6 µg/mL (≈ 94.3 µM); against Staphylococcus aureus it was 3.49 µg/mL (≈ 10.8 µM).
For the molecule `O=C(CSC(=S)N[C@H]1CCOC1=O)Nc1ccc(Cl)cc1Cl`, the MIC50 in the assay with Bacillus subtilis was 5.6 µg/mL (≈ 14.8 µM); against Pseudomonas aeruginosa, > 128 µg/mL; against Escherichia coli, 21 µg/mL (≈ 55.4 µM); in the assay on Staphylococcus aureus, 4.9 µg/mL (≈ 12.9 µM).
Consider `COc1ccc(NC(=O)CSC(=S)N[C@H]2CCOC2=O)cc1`, for which the MIC50 is > 128 µg/mL in the assay on Bacillus subtilis, > 128 µg/mL in the assay on Pseudomonas aeruginosa, 54.2 µg/mL (≈ 159 µM) with Escherichia coli and 9.52 µg/mL (≈ 28 µM) against Staphylococcus aureus.
For the molecule `O=C(CSC(=S)N[C@H]1CCOC1=O)Nc1cccc(C(F)(F)F)c1`, the MIC50 is 1.44 µg/mL (≈ 3.81 µM) with Bacillus subtilis, > 128 µg/mL against Pseudomonas aeruginosa, > 128 µg/mL against Escherichia coli and 5.81 µg/mL (≈ 15.3 µM) in the assay with Staphylococcus aureus.
For `O=C(CSC(=S)N[C@H]1CCOC1=O)Nc1cccc([N+](=O)[O-])c1`, the MIC50 against Bacillus subtilis was found to be 6.29 µg/mL (≈ 17.7 µM); against Pseudomonas aeruginosa, 59.9 µg/mL (≈ 169 µM); against Escherichia coli it was 12.8 µg/mL (≈ 36 µM); against Staphylococcus aureus it was 8.67 µg/mL (≈ 24.4 µM).
Taken in the same sequence, the figures for `CSC(=S)N[C@H]1CCOC1=O` were > 128 µg/mL, 31.9 µg/mL (≈ 167 µM), 17.6 µg/mL (≈ 92 µM) and > 128 µg/mL.
In the same order, the values of `CCSC(=S)N[C@H]1CCOC1=O` are > 128 µg/mL, 34.6 µg/mL (≈ 168 µM), 25.2 µg/mL (≈ 123 µM) and > 128 µg/mL.
In the case of `CCCCSC(=S)N[C@H]1CCOC1=O`, the MIC50 in the assay with Bacillus subtilis is > 128 µg/mL; in the assay on Pseudomonas aeruginosa it was 44.6 µg/mL (≈ 191 µM); with Escherichia coli it was > 128 µg/mL; against Staphylococcus aureus, > 128 µg/mL.
Take `CCCCCCSC(=S)N[C@H]1CCOC1=O`: the MIC50 in the assay with Bacillus subtilis, against Pseudomonas aeruginosa, against Escherichia coli and against Staphylococcus aureus was > 128 µg/mL in each case.
For `CCCCCCCCSC(=S)N[C@H]1CCOC1=O`, the MIC50 in the assay with Bacillus subtilis, with Pseudomonas aeruginosa, against Escherichia coli and against Staphylococcus aureus was > 128 µg/mL each time.
For `CCCCCCCCCCCCSC(=S)N[C@H]1CCOC1=O`, the MIC50 is > 128 µg/mL against Bacillus subtilis, > 128 µg/mL with Pseudomonas aeruginosa, > 128 µg/mL with Escherichia coli and 50.6 µg/mL (≈ 146 µM) in the assay with Staphylococcus aureus.
Take `CCCCCCCCCCCCCCSC(=S)N[C@H]1CCOC1=O`: the MIC50 in the assay on Bacillus subtilis is > 128 µg/mL; in the assay on Pseudomonas aeruginosa, > 128 µg/mL; in the assay with Escherichia coli it was 67.8 µg/mL (≈ 182 µM); with Staphylococcus aureus, > 128 µg/mL.
Take `C[C@H]1COc2c(N3CCN(C)CC3)c(F)cc3c(=O)c(C(=O)O)cn1c23.C[C@H]1COc2c(N3CCN(C)CC3)c(F)cc3c(=O)c(C(=O)O)cn1c23.O` [LEVOFLOXACIN]: the MIC50 against Bacillus subtilis, in the assay on Pseudomonas aeruginosa, in the assay with Escherichia coli and against Staphylococcus aureus was < 0.25 µg/mL throughout.

Broadly, the MIC50 is an inhibitory concentration at the 50% level, which refers to growth in some studies and to a panel of isolates in others.
